Measured values: paper PMC11200585, “Prospects for Prostate Cancer Chemotherapy: Cytotoxic Evaluation and Mechanistic Insights of Quinolinequinones with ADME/PK Profile” (Biomedicines, 2024)

Tests used:
Assay type in all cases: cell-based, human
MDA-MB-435 = test: NCI-60 five-dose assay (melanoma); conditions: 48 h, SRB
786-0 = test: NCI-60 one-dose screen (renal cancer); conditions: 10 µM single dose, 48 h
Protocol: (§1) The obtained quinolinequinones were submitted to NCI, Bethesda, USA, and, as per standard protocol of NCI, all compounds were evaluated for their antiproliferative activity at single-dose assay (10 µM concentration in DMSO) on a panel of 60 cancer cell lines derived from leukemia, non-small-cell lung, colon, CNS, melanoma, ovarian, renal, prostate, and breast, as per protocol. Tested compounds were added to the microtiter culture plates followed by incubation for 48 h at 37 °C. Sulforhodamine B (SRB), a protein-binding dye, is used for endpoint determination. The percent of the growth of the treated cells was determined in comparison to the untreated control cells and the results of each tested compound were reported. Data from one-dose experiments pertain to the percentage growth at 10 μM [16, 17, 18].

UO-31 [1] = test: NCI-60 one-dose screen (renal cancer); conditions: 10 µM single dose, 48 h
Protocol: as §1

A498 = test: NCI-60 one-dose screen (renal cancer); conditions: 10 µM single dose, 48 h
Protocol: as §1

ACHN = test: NCI-60 one-dose screen (renal cancer); conditions: 10 µM single dose, 48 h
Protocol: as §1

TK-10 [2] = test: NCI-60 one-dose screen (renal cancer); conditions: 10 µM single dose, 48 h
Protocol: as §1

SN12C = test: NCI-60 one-dose screen (renal cancer); conditions: 10 µM single dose, 48 h
Protocol: as §1

SR = test: NCI-60 one-dose screen (leukemia); conditions: 10 µM single dose, 48 h
Protocol: as §1

CCRF-CEM = test: NCI-60 one-dose screen (leukemia); conditions: 10 µM single dose
Protocol: as §1

HL-60(TB) [3] = test: NCI-60 one-dose screen (leukemia); conditions: 10 µM single dose, 48 h
Protocol: as §1

K-562 [4] = test: NCI-60 one-dose screen (leukemia)
Protocol: as §1

MOLT-4 = test: NCI-60 one-dose screen (leukemia); conditions: 10 µM single dose
Protocol: as §1

RPMI-8226 = test: NCI-60 one-dose screen (leukemia); conditions: 10 µM single dose, 48 h
Protocol: as §1

SW-620 [5] = test: NCI-60 five-dose assay (colon cancer); conditions: 48 h, SRB
SK-MEL-28 = test: NCI-60 five-dose assay (melanoma); conditions: 48 h, SRB
HT29 = test: NCI-60 five-dose assay (colon cancer); conditions: SRB
OVCAR-4 = test: NCI-60 five-dose assay (ovarian cancer); conditions: 48 h, SRB
HL-60(TB) [6] = test: NCI-60 five-dose assay (leukemia); conditions: 48 h, SRB
K-562 [7] = test: NCI-60 five-dose assay (leukemia); conditions: SRB
KM12 [8] = test: NCI-60 one-dose screen (colon cancer); conditions: 10 µM single dose, 48 h
COLO 205 [9] = test: NCI-60 one-dose screen (colon cancer); conditions: 10 µM single dose, 48 h
SW-620 [10] = test: NCI-60 one-dose screen (colon cancer); conditions: 10 µM single dose, 48 h
HCT-15 = test: NCI-60 five-dose assay (colon cancer); conditions: 48 h, SRB
HCT-116 = test: NCI-60 five-dose assay (colon cancer); conditions: 48 h, SRB
UACC-257 = test: NCI-60 five-dose assay (melanoma); conditions: 48 h, SRB
SF-295 = test: NCI-60 five-dose assay (CNS cancer); conditions: 48 h, SRB
UO-31 [11] = test: NCI-60 five-dose assay (renal cancer); conditions: 48 h, SRB
TK-10 [12] = test: NCI-60 five-dose assay (renal cancer); conditions: 48 h, SRB
IGROV1 = test: NCI-60 five-dose assay (ovarian cancer); conditions: SRB
COLO 205 [13] = test: NCI-60 five-dose assay (colon cancer); conditions: 48 h, SRB
M14 = test: NCI-60 five-dose assay (melanoma); conditions: 48 h, SRB
A549/ATCC = test: NCI-60 five-dose assay (non-small cell lung cancer); conditions: 48 h, SRB
U251 = test: NCI-60 five-dose assay (CNS cancer); conditions: SRB
KM12 [14] = test: NCI-60 five-dose assay (colon cancer); conditions: 48 h, SRB
DU-145 = test: NCI-60 five-dose assay (prostate cancer); conditions: 48 h, SRB
SF-539 = test: NCI-60 five-dose assay (CNS cancer); conditions: 48 h, SRB
OVCAR-8 = test: NCI-60 five-dose assay (ovarian cancer); conditions: 48 h, SRB
[15] = Homo sapiens, read-out: LC50 (the source's name)

`COc1cc(NC2=C(Cl)C(=O)c3nc(C)ccc3C2=O)cc(OC)c1` [AQQ5] gave a TGI (MDA-MB-435) of 3.57 µM, a GI50 (MDA-MB-435; Homo sapiens) of 1.72 µM and a CC50 (MDA-MB-435; [15]) of 7.39 µM. The “GP (growth percentage)” value (786-0) was −59.47%, the “GP (growth percentage)” value (UO-31 [1]) was −94.65% and the “GP (growth percentage)” value (A498) was 71.10%. The “GP (growth percentage)” value (ACHN) was −99.62%, the “GP (growth percentage)” value (TK-10 [2]) was −50.07% and the “GP (growth percentage)” value (SN12C) was −63.27%. The “GP (growth percentage)” value (SR) was −3.19%, the “GP (growth percentage)” value (CCRF-CEM; 48 h) was 2.72% and the inhibition at 10 µM (CCRF-CEM; Homo sapiens) was 97.3%. The “GP (growth percentage)” value (HL-60(TB) [3]) was −13.44%, the “GP (growth percentage)” value (K-562 [4]; 10 µM single dose, 48 h) was 4.73% and the inhibition at 10 µM (K-562 [4]; Homo sapiens, K562, 10 µM single dose) was 95.3%. For the same compound, the “GP (growth percentage)” value (MOLT-4; 48 h) was 8.29%, the inhibition at 10 µM (MOLT-4; Homo sapiens) was 91.7% and the “GP (growth percentage)” value (RPMI-8226) was −39.66%. For the same compound, the TGI (SW-620 [5]) was 3.47 µM, the GI50 (SW-620 [5]; Homo sapiens) was 1.76 µM and the LC50 (SW-620 [5]; Homo sapiens) was 6.85 µM. For the same compound, the TGI (SK-MEL-28) was 3.23 µM, the GI50 (SK-MEL-28; Homo sapiens) was 1.79 µM and the LC50 (SK-MEL-28; Homo sapiens) was 5.85 µM. The TGI (HT29; 48 h) was 3.48 µM, the GI50 (HT29; Homo sapiens, HT-29, 48 h) was 1.87 µM and the LC50 (concentration killing 50% of cells) (HT29; Homo sapiens, HT-29, 48 h) was 6.48 µM. The TGI (OVCAR-4) was 2.82 µM, the GI50 (OVCAR-4; Homo sapiens) was 1.4 µM and the LC50 (concentration killing 50% of cells) (OVCAR-4; Homo sapiens) was 5.66 µM. For the same compound, the TGI (HL-60(TB) [6]) was 4.65 µM, the GI50 (HL-60(TB) [6]; Homo sapiens) was 1.38 µM and the CC50 (HL-60(TB) [6]; [15]) was greater than 100 µM. For the same compound, the TGI (K-562 [7]; 48 h) was greater than 100 µM, the GI50 (K-562 [7]; Homo sapiens, K562, 48 h) was 0.381 µM and the LC50 (K-562 [7]; Homo sapiens, K562, 48 h) was greater than 100 µM. The “GP (growth percentage)” value (KM12 [8]) was 39.30%, the “GP (growth percentage)” value (COLO 205 [9]) was −80.52% and the “GP (growth percentage)” value (SW-620 [10]) was −90.16%. For the same compound, the TGI (HCT-15) was 3.92 µM, the GI50 (HCT-15; Homo sapiens) was 1.54 µM and the TGI (HCT-116) was 2.88 µM. The GI50 (HCT-116; Homo sapiens) was 1.53 µM, the LC50 (HCT-116; Homo sapiens) was 5.45 µM and the TGI (UACC-257) was 2.85 µM. It also gave a GI50 (UACC-257; Homo sapiens) of 1.51 µM, an LC50 (NCI-60 lethal concentration, 50% cell kill) (UACC-257; Homo sapiens) of 5.37 µM and a TGI (SF-295) of 5.41 µM. The GI50 (SF-295; Homo sapiens) was 1.99 µM, the LC50 (50% lethal concentration) (SF-295; Homo sapiens) was 20.8 µM and the TGI (UO-31 [11]) was 3.06 µM. The GI50 (UO-31 [11]; Homo sapiens) was 1.69 µM, the LC50 (lethal concentration 50%) (UO-31 [11]; Homo sapiens) was 5.53 µM and the TGI (TK-10 [12]) was 3.78 µM. The GI50 (TK-10 [12]; Homo sapiens) was 2.32 µM, the LC50 (concentration killing 50% of starting cells) (TK-10 [12]; Homo sapiens) was 6.15 µM and the TGI (IGROV1; 48 h) was 3.55 µM. It also gave a GI50 (IGROV1; Homo sapiens, IGROV-1, 48 h) of 1.73 µM, an LC50 (IGROV1; Homo sapiens, IGROV-1, 48 h) of 7.26 µM and a TGI (COLO 205 [13]) of 3.08 µM. It also gave a GI50 (COLO 205 [13]; Homo sapiens) of 1.68 µM, a CC50 (COLO 205 [13]; [15]) of 5.63 µM and a TGI (M14) of 3.09 µM. The GI50 (M14; Homo sapiens) was 1.69 µM, the LC50 (M14; Homo sapiens) was 5.66 µM and the TGI (A549/ATCC) was 8.97 µM. For the same compound, the GI50 (A549/ATCC; Homo sapiens) was 2.83 µM, the CC50 (A549/ATCC; [15]) was 38.8 µM and the TGI (U251; 48 h) was 4.44 µM. It also gave a GI50 (U251; Homo sapiens, U-251, 48 h) of 1.92 µM, an LC50 (concentration killing 50% of cells) (U251; Homo sapiens, U-251, 48 h) of 10.8 µM and a TGI (KM12 [14]) of 26.6 µM. For the same compound, the GI50 (KM12 [14]; Homo sapiens) was 13 µM, the CC50 (KM12 [14]; [15]) was 54.7 µM and the TGI (DU-145) was 3.55 µM. For the same compound, the GI50 (DU-145; Homo sapiens) was 1.84 µM, the CC50 (DU-145; [15]) was 6.83 µM and the TGI (SF-539) was 3.22 µM. For the same compound, the GI50 (SF-539; Homo sapiens) was 1.79 µM, the LC50 (SF-539; Homo sapiens) was 5.78 µM and the TGI (OVCAR-8) was 3.28 µM. It also gave a GI50 (OVCAR-8; Homo sapiens) of 1.64 µM and a CC50 (OVCAR-8; [15]) of 6.56 µM.
